From the supplement of paper PMC10307832

Key:
Test in all cases: relative viability (nuclei count vs DMSO), 5 days (fraction); higher = more cells survive
BAM7 + Pemetrexed = compound: CCOC1=CC=CC=C1N=NC2=C(NN(C2=O)C3=NC(=CS3)C4=CC=CC=C4)C [BAM7] + Nc1nc2[nH]cc(CCc3ccc(C(=O)N[C@@H](CCC(=O)O)C(=O)O)cc3)c2c(=O)[nH]1 [Pemetrexed] (partner 0.2 µM)
How it was run: (§1)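 Medians of duplicate plates are given as relative viability. That measure is the nuclei count in treated wells divided by the count in vehicle wells. Counts were taken on 4× images of lung cancer cell lines in 1536-well plates, 5 days after pin-tool dosing the day after seeding with one drug alone or a fixed anchor-drug dose plus five library-drug doses (not always all listed) in √10 steps.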

[1] = compound: CCn1c(-c2nonc2N)nc2c(C#CC(C)(C)O)ncc(OC[C@H]3CCCNC3)c21 + O=C(CCCCCCC(=O)Nc1ccccc1)NO [Vorinostat] (partner 1 µM)
How it was run: as §1

[2] = compound: CCn1c(-c2nonc2N)nc2c(C#CC(C)(C)O)ncc(OC[C@H]3CCCNC3)c21 + CS(=O)(=O)N1CCN(Cc2cc3nc(-c4cccc5[nH]ncc45)nc(N4CCOCC4)c3s2)CC1 [Pictilisib] (partner 1 µM)
How it was run: as §1

BAM7 + Olaparib = compound: CCOC1=CC=CC=C1N=NC2=C(NN(C2=O)C3=NC(=CS3)C4=CC=CC=C4)C [BAM7] + O=C(c1cc(Cc2n[nH]c(=O)c3ccccc23)ccc1F)N1CCN(C(=O)C2CC2)CC1 [Olaparib] (partner 8 µM)
How it was run: as §1

NCI-H2347
relative viability (BAM7 + Pemetrexed; first compound 0.5 µM): 0.426
relative viability (BAM7 + Pemetrexed; first compound 5 µM): 0.424
relative viability (BAM7 + Pemetrexed; first compound 15.81 µM): 0.422
relative viability (BAM7 + Pemetrexed; first compound 50 µM): 0.415
relative viability ([1]; first compound 0.01 µM): 0.602
relative viability ([1]; first compound 0.03162 µM): 0.522
relative viability ([1]; first compound 0.1 µM): 0.611
relative viability ([1]; first compound 0.3162 µM): 0.543
relative viability ([1]; first compound 1 µM): 0.55
relative viability ([2]; first compound 0.01 µM): 0.456
relative viability ([2]; first compound 0.03162 µM): 0.675
relative viability ([2]; first compound 0.1 µM): 0.0164
relative viability ([2]; first compound 0.3162 µM): 0.858
relative viability ([2]; first compound 1 µM): 0.472
relative viability (BAM7 + Olaparib; first compound 0.5 µM): 0.588
relative viability (BAM7 + Olaparib; first compound 5 µM): 0.642
relative viability (BAM7 + Olaparib; first compound 15.81 µM): 0.625
relative viability (BAM7 + Olaparib; first compound 50 µM): 0.601

NCI-H2405
relative viability (BAM7 + Pemetrexed; first compound 0.5 µM): 1.11
relative viability (BAM7 + Pemetrexed; first compound 5 µM): 1.06
relative viability (BAM7 + Pemetrexed; first compound 15.81 µM): 1.09
relative viability (BAM7 + Pemetrexed; first compound 50 µM): 1.11
relative viability ([1]; first compound 0.01 µM): 0.811
relative viability ([1]; first compound 0.03162 µM): 0.838
relative viability ([1]; first compound 0.1 µM): 0.913
relative viability ([1]; first compound 0.3162 µM): 0.854
relative viability ([1]; first compound 1 µM): 1.06
relative viability ([2]; first compound 0.01 µM): 0.407
relative viability ([2]; first compound 0.03162 µM): 0.492
relative viability ([2]; first compound 0.3162 µM): 0.445
relative viability ([2]; first compound 1 µM): 0.406
relative viability (BAM7 + Olaparib; first compound 0.5 µM): 0.936
relative viability (BAM7 + Olaparib; first compound 5 µM): 0.936
relative viability (BAM7 + Olaparib; first compound 15.81 µM): 0.889
relative viability (BAM7 + Olaparib; first compound 50 µM): 0.908

NCI-H3122
relative viability (BAM7 + Pemetrexed; first compound 0.5 µM): 0.194
relative viability (BAM7 + Pemetrexed; first compound 5 µM): 0.191
relative viability (BAM7 + Pemetrexed; first compound 15.81 µM): 0.196
relative viability (BAM7 + Pemetrexed; first compound 50 µM): 0.195
relative viability ([1]; first compound 0.01 µM): 1.07
relative viability ([1]; first compound 0.03162 µM): 1.01
relative viability ([1]; first compound 0.1 µM): 1.05
relative viability ([1]; first compound 0.3162 µM): 1.06
relative viability ([1]; first compound 1 µM): 0.994
relative viability ([2]; first compound 0.01 µM): 0.606
relative viability ([2]; first compound 0.03162 µM): 0.612
relative viability ([2]; first compound 0.1 µM): 0.634
relative viability ([2]; first compound 0.3162 µM): 0.598
relative viability ([2]; first compound 1 µM): 0.55
relative viability (BAM7 + Olaparib; first compound 0.5 µM): 0.428
relative viability (BAM7 + Olaparib; first compound 5 µM): 0.579
relative viability (BAM7 + Olaparib; first compound 15.81 µM): 0.416
relative viability (BAM7 + Olaparib; first compound 50 µM): 0.53

PC-3 [JPC-3]
relative viability (BAM7 + Pemetrexed; first compound 0.5 µM): 1.17
relative viability (BAM7 + Pemetrexed; first compound 5 µM): 1.13
relative viability (BAM7 + Pemetrexed; first compound 15.81 µM): 1.05
relative viability (BAM7 + Pemetrexed; first compound 50 µM): 1.08
relative viability ([1]; first compound 0.01 µM): 0.553
relative viability ([1]; first compound 0.1 µM): 0.73
relative viability ([1]; first compound 0.3162 µM): 0.76
relative viability ([1]; first compound 1 µM): 0.751
relative viability ([2]; first compound 0.01 µM): 0.754
relative viability ([2]; first compound 0.03162 µM): 0.744
relative viability ([2]; first compound 0.1 µM): 0.762
relative viability ([2]; first compound 0.3162 µM): 0.695
relative viability ([2]; first compound 1 µM): 0.643
relative viability (BAM7 + Olaparib; first compound 0.5 µM): 1.12
relative viability (BAM7 + Olaparib; first compound 5 µM): 1.1
relative viability (BAM7 + Olaparib; first compound 15.81 µM): 1.06
relative viability (BAM7 + Olaparib; first compound 50 µM): 0.995

PC-14
relative viability (BAM7 + Pemetrexed; first compound 0.5 µM): 0.128
relative viability (BAM7 + Pemetrexed; first compound 5 µM): 0.129
relative viability (BAM7 + Pemetrexed; first compound 15.81 µM): 0.142
relative viability (BAM7 + Pemetrexed; first compound 50 µM): 0.165
relative viability ([1]; first compound 0.01 µM): 0.68
relative viability ([1]; first compound 0.03162 µM): 0.742
relative viability ([1]; first compound 0.1 µM): 0.722
relative viability ([1]; first compound 0.3162 µM): 0.556
relative viability ([1]; first compound 1 µM): 0.461
relative viability ([2]; first compound 0.01 µM): 0.633
relative viability ([2]; first compound 0.03162 µM): 0.754
relative viability ([2]; first compound 0.1 µM): 0.75
relative viability ([2]; first compound 0.3162 µM): 0.72
relative viability ([2]; first compound 1 µM): 0.564
relative viability (BAM7 + Olaparib; first compound 0.5 µM): 0.305
relative viability (BAM7 + Olaparib; first compound 5 µM): 0.216
relative viability (BAM7 + Olaparib; first compound 15.81 µM): 0.161
relative viability (BAM7 + Olaparib; first compound 50 µM): 0.234

RERF-LC-KJ
relative viability (BAM7 + Pemetrexed; first compound 0.5 µM): 0.518
relative viability (BAM7 + Pemetrexed; first compound 5 µM): 0.53
relative viability (BAM7 + Pemetrexed; first compound 15.81 µM): 0.464
relative viability (BAM7 + Pemetrexed; first compound 50 µM): 0.529
relative viability ([1]; first compound 0.01 µM): 0.665
relative viability ([1]; first compound 0.03162 µM): 0.595
relative viability ([1]; first compound 0.1 µM): 0.684
relative viability ([1]; first compound 0.3162 µM): 0.574
relative viability ([1]; first compound 1 µM): 0.628
relative viability ([2]; first compound 0.01 µM): 0.578
relative viability ([2]; first compound 0.03162 µM): 0.566
relative viability ([2]; first compound 0.1 µM): 0.556
relative viability ([2]; first compound 0.3162 µM): 0.567
relative viability ([2]; first compound 1 µM): 0.535
relative viability (BAM7 + Olaparib; first compound 0.5 µM): 0.346
relative viability (BAM7 + Olaparib; first compound 5 µM): 0.3
relative viability (BAM7 + Olaparib; first compound 15.81 µM): 0.288
relative viability (BAM7 + Olaparib; first compound 50 µM): 0.304

SK-LU-1
relative viability (BAM7 + Pemetrexed; first compound 0.5 µM): 0.906
relative viability (BAM7 + Pemetrexed; first compound 5 µM): 1.07
relative viability (BAM7 + Pemetrexed; first compound 15.81 µM): 0.905
relative viability (BAM7 + Pemetrexed; first compound 50 µM): 0.99
relative viability ([1]; first compound 0.01 µM): 0.767
relative viability ([1]; first compound 0.03162 µM): 0.781
relative viability ([1]; first compound 0.1 µM): 0.78
relative viability ([1]; first compound 0.3162 µM): 0.677
relative viability ([1]; first compound 1 µM): 0.767
relative viability ([2]; first compound 0.01 µM): 0.64
relative viability ([2]; first compound 0.03162 µM): 0.715
relative viability ([2]; first compound 0.1 µM): 0.498
relative viability ([2]; first compound 0.3162 µM): 0.575
relative viability ([2]; first compound 1 µM): 0.617
relative viability (BAM7 + Olaparib; first compound 0.5 µM): 0.463
relative viability (BAM7 + Olaparib; first compound 5 µM): 0.542
relative viability (BAM7 + Olaparib; first compound 15.81 µM): 0.444
relative viability (BAM7 + Olaparib; first compound 50 µM): 0.55

SK-MES-1
relative viability (BAM7 + Pemetrexed; first compound 0.5 µM): 0.919
relative viability (BAM7 + Pemetrexed; first compound 5 µM): 0.906
relative viability (BAM7 + Pemetrexed; first compound 15.81 µM): 0.814
relative viability (BAM7 + Pemetrexed; first compound 50 µM): 0.866
relative viability ([1]; first compound 0.01 µM): 1.08
relative viability ([1]; first compound 0.03162 µM): 1.1
relative viability ([1]; first compound 0.1 µM): 1.1
relative viability ([1]; first compound 0.3162 µM): 1.05
relative viability ([1]; first compound 1 µM): 1.1
relative viability ([2]; first compound 0.01 µM): 0.399
relative viability ([2]; first compound 0.03162 µM): 0.351
relative viability ([2]; first compound 0.1 µM): 0.363
relative viability ([2]; first compound 0.3162 µM): 0.339
relative viability ([2]; first compound 1 µM): 0.314
relative viability (BAM7 + Olaparib; first compound 0.5 µM): 0.82
relative viability (BAM7 + Olaparib; first compound 5 µM): 0.703
relative viability (BAM7 + Olaparib; first compound 15.81 µM): 0.613
relative viability (BAM7 + Olaparib; first compound 50 µM): 0.704

SW 1573
relative viability (BAM7 + Pemetrexed; first compound 0.5 µM): 0.843
relative viability (BAM7 + Pemetrexed; first compound 5 µM): 0.822
relative viability (BAM7 + Pemetrexed; first compound 15.81 µM): 0.801
relative viability (BAM7 + Pemetrexed; first compound 50 µM): 0.823
relative viability ([1]; first compound 0.01 µM): 0.374
relative viability ([1]; first compound 0.03162 µM): 0.82
relative viability ([1]; first compound 0.1 µM): 0.451
relative viability ([1]; first compound 0.3162 µM): 0.367
relative viability ([1]; first compound 1 µM): 0.499
relative viability ([2]; first compound 0.01 µM): 0.432
relative viability ([2]; first compound 0.03162 µM): 0.395
relative viability ([2]; first compound 0.1 µM): 0.453
relative viability ([2]; first compound 0.3162 µM): 0.447
relative viability ([2]; first compound 1 µM): 0.365
relative viability (BAM7 + Olaparib; first compound 0.5 µM): 0.574
relative viability (BAM7 + Olaparib; first compound 5 µM): 0.583
relative viability (BAM7 + Olaparib; first compound 15.81 µM): 0.461
relative viability (BAM7 + Olaparib; first compound 50 µM): 0.46
